Source: patent US20250188422A1, “INDUCED TOTIPOTENT POTENTIAL STEM CELLS, METHODS OF MAKING AND USING” (Peking University, priority 2022, published 2025)

Legend:
[1] = tested on: Zscan4-Emerald GFP and MERVL-tdTomato reporter expression in mouse EPS cells; assay: Screen with Zscan4-Emerald GFP and MERVL-tdTomato reporter EPS cells; type: cell-based; settings: for effect with CD1530 in inducing totipotent markers: combined with CD1530, EPS reporter cells, day 3
Experimental: Cells were gently digested into single cells using 0.05% trypsin-EDTA. Suspensions were filtered through a 40 µm cell strainer. Then, the samples were analyzed on CytoFLEX (Beckman Coulter). Data analysis was performed using CytExpert software.
To identify small molecules that can induce totipotent features in mouse EPS cells, we used cell lines carrying a MERVL-TdTomato or a Zscan4-Emerald GFP reporter. As the positive control, Dux overexpression was performed in these reporter cells (FIG. 6a-c). N2B27 medium was used for screening and Wnt signaling agonist CHIR 99021 was also added for promoting cell proliferation. In the primary screen, we focused on identifying small molecules that can increase the percentage of Zscan4-Emerald GFP+ cells, and identified more than 50 primary hits. These candidates were further evaluated using MERVL-tdTomato reporter cells and small molecules that can also induce MERVL-tdTomato were selected out for further determining their optimal dosage in activating Zscan4-Emerald and MERVL-tdTomato expression without inducing significant toxicity. […] Therefore, CHIR 99021 was included in the chemical cocktail.

TPS cells = assay: Culture of TPS cells without CHIR 99021; type: cell-based, mouse
Experimental: All cell lines were cultured under 20% 02 and 5% C02 at 37° C. Mouse TPS cells were cultured in 4S medium contained N2B27 basal medium [50% DMEM/F12 (Gibco, 11330-032), 50% Neurobasal (Gibco, 21103-049), 0.5% N2 supplement (Gibco, 17502-048), 1% B27 supplement (Gibco, 12587-010), 1% GlutaMAX (Gibco, 35050-061), 1% nonessential amino acids (Gibco, 11140-050)] which promoted cell proliferation, or 1640 basal medium [RPMI Medium 1640 basic (Gibco, 22400-089), 0.5% N2 supplement (Gibco, 17502-048), 1% B27 supplement (Gibco, 12587-010), 1% GlutaMAX (Gibco, 35050-061), 1% nonessential amino acids (Gibco, 11140-050)] which enhanced totipotent molecular features, supplemented with 5% knockout serum replacement (Gibco, 10828-028), 0.2% sodium pyruvate (Gibco, 11360-070), 0.14% sodium DL-lactate solution (Sigma, L7900) and 0.1% Chemically Defined Lipid Concentrate (Gibco, 11905-031), VPA (50 μM; Selleck, S3944), CHIR-99021 (3 μM; Selleck, S1263), EPZ004777 (1 μM, Selleck, S7353) and CD1530 ([…]-0.5 μM; Tocris, 2554). Mouse TPS cells were cultured on mitomycin C inactivated mouse embryonic fibroblast cells (feeders, 3*10^4 cells per cm^2). The culture medium was changed every day. TPS cells were passaged every three days with 0.05% trypsin-EDTA (Gibco, 25300-062) and seeded at a split ratio ranging from 1:3 to 1:10. To generate TPS cells, EPS cells or ES cells were dissociated and cultured on feeders in 4S medium for the first three passages, EPS cells or ES cells need to seed at a lower split ratio 1:3 to improve cell viability. After five passages, TPS cells were generated for further experiments.
The total RNAs were isolated using the Direct-zol RNA Kits (ZYMO Research, R2052). RNA was converted to cDNA using TransScript FirstStrand cDNA Synthesis SuperMix (TransGen Biotech, AT311). Quantitative PCR analysis was conducted using the KAPA SYBR FAST qPCR Kit (KAPA Biosystems, KK4601) with the Bio RAD CFX Connect Real-Time System. The data were analyzed using the delta-delta CT method.
Next, we sought to analyze the role of CHIR 99021 in the induction and maintenance of TPS cells. […]

[2] = tested on: EPS cells during TPS conversion; assay: Cell proliferation during conversion of EPS cells to TPS cells; type: cell-based, mouse; settings: CHIR 99021 omitted from the cocktail during the conversion
Experimental: Mouse EPS cells and ES cells cultured in N2B27-LCDM medium or N2B27-2i/LIF medium for two days were used for TPS generation. Mouse EPS cells and ES cells were washed with DMEM/F12, then 0.05% trypsin-EDTA (Gibco, 25300-062) was added and incubated for 3 min, then DMEM (Gibco, 11965092) supplemented with 10% FBS (Hyclone, SH30070.03) was added. The cells were pipetted up and down several times into single cells. Cells were centrifuged and re-suspended in 4S medium contained N2B27 which promoted cell proliferation or RPMI Medium 1640 basic (Gibco, 22400-089) which enhanced totipotent molecular features supplemented with 5% knockout serum replacement (Gibco, 10828-028), 0.2% sodium pyruvate (Gibco, 11360-070), 0.14% sodium DL-lactate solution (Sigma, L7900) and 0.1% Chemically Defined Lipid Concentrate (Gibco, 11905-031), VPA (50 μM; Selleck, S3944), CHIR-99021, EPZ004777 (1 μM, Selleck, S7353) and CD1530 ([…]-0.5 μM; Tocris, 2554). […]
To identify small molecules that can induce totipotent features in mouse EPS cells, we used cell lines carrying a MERVL-TdTomato or a Zscan4-Emerald GFP reporter. […] These candidates were further evaluated using MERVL-tdTomato reporter cells and small molecules that can also induce MERVL-tdTomato were selected out for further determining their optimal dosage in activating Zscan4-Emerald and MERVL-tdTomato expression without inducing significant toxicity. […]

[3] = tested on: 8-cell ICR diploid mouse embryos; assay: Chimeric assay of single-cell microinjection into 8-cell embryos; type: in vivo; settings: omission of CHIR 99021
Experimental: Cells were digested by 0.05% trypsin-EDTA, and the digested cells were filtered through a 40 µm cell strainer, centrifuged at 1,200-1,500 rpm for 3 min at room temperature. Supernatant were removed and cells were suspended using culture medium with the addition of Y-27632 (10 μM; Tocris, 1254), and placed on the ice before injection. After being placed on ice, the digested cells should be injected in 1 h, otherwise, another batch of cells were digested for the remaining injections.
Single cells were microinjected into 8-cell ICR diploid mouse embryos. The injected embryos were cultured in the culture medium with Y-27632 (10 μM; Tocris, 1254) for the first 4 h. For the generation of chimeric blastocysts, the embryos were transferred into the KSOM medium (Merck, MR-106-D). For the generation of single-cell derived in vivo chimeric conceptuses, chimeric embryos were cultured into KSOM medium with Y-27632 (10 μM; Tocris, 1254) addition in a humidified incubator under 5% CO2 at 37° C. overnight. Injected embryos were transferred to uterine horns of 0.5 post coitum pseudo-pregnant females. Fetal tissues, yolk sacs, placentas were dissected from conceptuses at E7.5, E10.5, E13.5 or E17.5 developmental stages.

O=C(O)c1ccc(-c2ccc3cc(O)c(C45CC6CC(CC(C6)C4)C5)cc3c2)cc1 [CD1530]
inducing Zscan4-GFP and MERVL-tdTomato expression ([1]; EPS reporter cells, N2B27 medium with CHIR 99021, after titration, compared with other screening hits): most effective

Cc1c[nH]c(-c2cnc(NCCNc3ccc(C#N)cn3)nc2-c2ccc(Cl)cc2Cl)n1 [CHIR 99021]
requirement for the proliferation of TPS cells (TPS cells; omission of CHIR 99021, after further passaging): not required | expression of totipotent marker genes in TPS cells (TPS cells; omission of CHIR 99021, after long-term culturing): not affected | proliferation of TPS cells (TPS cells; omission of CHIR 99021, first few passages (about 3-5 passages)): reduced proliferation | cell proliferation [2]: greatly reduced | in vivo chimeric of TPS cells [3]: greatly reduce

CC(C)N(CCCNC(=O)Nc1ccc(C(C)(C)C)cc1)C[C@H]1O[C@@H](n2ccc3c(N)ncnc32)[C@H](O)[C@@H]1O [EPZ004777]
effect with CD1530 in inducing totipotent markers [1]: synergistic effect

CCCC(CCC)C(=O)O [VPA]
effect with CD1530 in inducing totipotent markers [1]: synergistic effect
